Where “and” joins values, the source holds several entries; their conditions need not be identical. Equal values may be shown once.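 The compound was tested at five concentrations on cells cultured in 96-well plates, with a 48-hour exposure period. Here, GI50 denotes the concentration required for 50% inhibition of growth. TGI denotes the concentration required for complete inhibition of growth.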 Bounds are passed on as bounds.

Experiment in all cases: growth of human tumour cells (NCI), 48 h
Assay [1] has as its system A498 renal.
Assay [2] deals with HCT-15 colon.
The test system of assay [3] is HOP-62 NSCLC.
In assay [4] the test system is LOX IMVI melanoma.
The test system of assay [5] is OVCAR-5 ovarian.
Assay [6] has as its system SK-MEL-28 melanoma.
Assay [7] concerns SK-OV-3 ovarian.
The subject of assay [8] is SW-620 colon.
The test system of assay [9] is U251 CNS.
The test system of assay [10] is PC-3 prostate.

For the molecule `COc1ccc2[nH]cc(/C=C(/C)c3ccncc3)c2c1`, the TGI in assay [1] is 42.5 µM; in assay [2], 18.7 µM and 14 µM; in [3], 53.8 µM; in assay [4], 28.8 µM and 18.9 µM; in assay [5], 41.5 µM and > 100 µM; in assay [6], more than 100 µM. The TGI in assay [7] is 35.6 µM; in assay [8], 27.2 µM and > 100 µM; in assay [9], 11 µM and 67.9 µM. In addition, the GI50 was 0.551 µM in assay [2], 11.6 µM in assay [5], 9.02 µM in assay [6] and 3.24 µM in [9].

Turning to `CC1=C(Cl)C=CP(=O)(Oc2ccccc2)C1` (stereo not drawn), the TGI in assay [2], in [3], in [4], in [5], in [6] and in [8] was more than 100 µM each time. For the same molecule, the TGI in assay [9] was more than 100 µM.

Turning to `Nc1c(S(=O)(=O)O)cc2cc(S(=O)(=O)O)ccc2c1N=Nc1ccc(-c2ccc(N=Nc3c(N)c(S(=O)(=O)O)cc4cc(S(=O)(=O)O)ccc34)c(S(=O)(=O)O)c2)cc1`, the TGI in [1], in [2], in assay [3], in assay [4], in assay [5] and in assay [6] was more than 100 µM each time. The TGI in assay [7], in assay [8] and in assay [9] was more than 100 µM throughout.

Consider `COc1ccc(CN2C(=O)/C(=C\c3cc(OC)c(OC)c(OC)c3)c3ccccc32)cc1`, for which the GI50 is 2.79 µM in [1]; 1.9 µM in assay [2]; 2.42 µM in assay [3]; 1.76 µM in assay [4]; 2.71 µM in assay [5]; 3.14 µM in assay [10]. The GI50 in [6] was 1.82 µM; in [8] it was 2.15 µM; in [9] it was 1.56 µM. The TGI was 14.3 µM in [1]; 3.86 µM in assay [2]; 4.98 µM in assay [3]; 3.3 µM in [4]; 6.48 µM in [5]; more than 100 µM in assay [10]. Further, the figures for the TGI in [6], in assay [8] and in assay [9] were 3.74 µM, 4.85 µM and 2.98 µM, respectively.

On to `N#C/C(=C1/Sc2c(nc[nH]c2=O)N1c1ccccc1)c1nc2ccccc2[nH]1`, for which the TGI in assay [1], in [2], in [3], in assay [5], in assay [6] and in assay [7] was more than 100 µM in each case. The TGI in assay [8] and in [9] was more than 100 µM in each case.

Regarding `Nc1nccc(-c2c[nH]c3cc(Br)ccc23)n1`, the TGI in assay [2] is more than 100 µM; in assay [3], more than 100 µM; in assay [4], 53.4 µM; in assay [5], 49 µM; in assay [10] it was more than 100 µM; in assay [6], 86.8 µM. The TGI in assay [7] is 99.4 µM; in assay [8], more than 100 µM; in assay [9], more than 100 µM.

As to `C=CC1(CC/C(=C\[N+](=O)[O-])c2ccc(OC)c(OC)c2)OCC(C)(C)CO1`, the TGI in [2] turned out to be 38.6 µM; in assay [3], 60.7 µM; in assay [4], 55.8 µM; in assay [5], 35.2 µM; in assay [10], 57 µM; in [6], 50.3 µM. The TGI in [7] was 60.4 µM; in assay [8], more than 100 µM; in assay [9] it was more than 100 µM.

As for `Nn1c(Nc2ccc(S(=O)(=O)Nc3ncccn3)cc2)nnc(/C=C/c2c(O)ccc3ccccc23)c1=O`, the TGI in assay [1] was 72.4 µM; in assay [2] it was more than 100 µM; in assay [3], more than 100 µM; in [4] it was more than 100 µM; in [5], 91.9 µM; in assay [10], more than 100 µM. For the same molecule, the TGI in [8] and in assay [9] was more than 100 µM throughout.

Take `CCCCCCCC/C=C\CCCCCCCCCCCC(=O)O`: the TGI in [2] was 122 µM; in assay [3] it was 63.6 µM; in [4] it was 70.8 µM; in [5], more than 125 µM; in assay [6], 108 µM; in assay [7] it was more than 125 µM. Moreover, the TGI came out at 90.1 µM in assay [8] and 110 µM in assay [9].

Regarding `COc1ccc(-n2c(C)nc3ccc(NC(=S)Nc4ccccc4)cc3c2=O)cc1`, the TGI in assay [1], in assay [2], in [3], in assay [4], in assay [5] and in [10] was more than 100 µM in each case. In addition, the TGI in assay [6], in assay [8] and in assay [9] was more than 100 µM each time.

Take `Nc1nc(SCCC/C=C/I)nc2c1ncn2C1OC(COP(=O)(O)O)C(O)C1O` (stereo not drawn): the TGI in assay [1], in [2], in assay [3], in [4], in assay [5] and in assay [6] was more than 100 µM in each case. Moreover, the TGI in [7], in [8] and in assay [9] was more than 100 µM each time.

On to `CC1(C(=O)O)CCC2(C)CCC3(C)C(=CC(=O)C4C5(C)CCC(O)C(C)(C)C5CCC43C)C2C1` (stereo not drawn), for which the TGI in [2] is 85.4 µM; in assay [4], 41.8 µM; in assay [5] it was 82.9 µM; in assay [10], more than 100 µM; in [6], 52.4 µM; in assay [7], more than 100 µM. Further, the TGI in [8] and in [9] was more than 100 µM in each case.

For the molecule `NS(=O)(=O)c1nnc(NC(=O)Nc2ccc(Cl)c(Cl)c2)s1`, the TGI was 43.9 µM in assay [1]; 50.7 µM in assay [2]; 39.7 µM in assay [3]; 36.4 µM in assay [4]; 75 µM in assay [5]; 39.3 µM in assay [6]. Further, the TGI in assay [7] is 63.4 µM; in assay [8], more than 100 µM; in assay [9] it was more than 100 µM.

As to `Cc1cc(C)nc(NS(=O)(=O)c2ccc(NC(=O)c3ccc4nc5ccccc5c(Nc5ccc(S(N)(=O)=O)cc5)c4c3)cc2)n1`, the TGI in assay [2], in [3], in [4], in assay [5], in assay [10] and in [6] was more than 100 µM throughout. Also, the TGI in assay [7], in assay [8] and in assay [9] was more than 100 µM in each case.
